From US20240368241A1, “SYNDECAN PEPTIDES” (Queen Mary University of London, priority 2021, published 2024)
“Also recorded” adds a separate entry of the source.

Columns and labels:
murine choroid explants = assay: Ex-vivo angiogenic sprouting assay, murine choroid explants; type: cell-based, mouse; settings: 0.5 μM peptide, 30 ng/ml VEGF, Collagen I matrix
Description: FIG. 7: QM111T inhibits choroidal neovascularization. Murine choroid explants were embedded in a Collagen I matrix and supplemented with 30 ng/ml VEGF and either 0.5 μM of QM111, QM111T, QM107 or a combination.
Thoracic aortas were dissected from either male wistar rats (˜200 g) or 4-5 week old male C57BL6J mice (both obtained from Charles River, UK). The fat surrounding the aortas was removed as were any branches and the tissue sliced into <1 mm rings. Choroid membranes explants were isolated from 21 to 28 day old male C57BL6J mice. Eyes were punctured with scissors and the iris/cornea/lens and retina removed. The resultant Choroid was then cut into 1 mm3 chunks. After dissection both aortic rings and choroid explants were incubated overnight at 37° C. in Opti-MEM (Thermo Fisher Scientific) prior to embedding on ice in 0.15 ml of 1 mg/ml Collagen I (Millipore) in E4 medium (Thermo Fisher Scientific) in 48 well plates (Corning). After 30 mins incubation at 37° C., to set the Collagen, wells were supplemented with 200 ul Opti-MEM with 1% FBS. For rat aortic rings 10 ng/ml of […] (R and D Systems) was added, for mouse aortic and choroid explants 30 ng/ml was used. Treatments at the concentrations indicated were also added to this and media replenished every 3 days. Angiogenic sprouts from explants were counted after 7 days and expressed as sprouts/ring or explant.

rat aortic rings = assay: Ex-vivo angiogenic sprouting assay, rat aortic rings; type: cell-based; settings: peptides 0.5 μM alone or in combination, n=30-31 rings/condition
Description: FIG. 1. […] Schematic diagram showing the GST fusion protein consisting of GST fused at the N-terminus of the complete coding sequence of the murine Syndecan-3 extracellular core protein. This protein was expressed and purified from bacteria and was tested in the rat aortic ring angiogenic sprouting assay. Aortas were dissected from rats before being sliced into 1 mm wide rings. They are then embedded in collagen I with 0.5 μM of either GST or S3ED purified fusion proteins. 10 ng/ml of VEGF-A was then added into feeding media to encourage angiogenesis. After 7 days, angiogenic sprouts were counted. Images were captured on day 7 using a Hamamatsu Orca ER digital camera and processed using Cell M software. Data is from at least 10 rings per condition from 8 […]. (A) Phase contrast micrographs of aortic rings after 7 days. (B) Graph showing the number of sprouts formed after 7 days (*** p≤0.005).
FIG. 4. […] Comparison of the antiangiogenic sequences in the murine and human forms of syndecan-3 (A). Amino acids which are different are highlighted in yellow. Rat aortic rings where treated with 0.5 μM of either QM107, QM111, QM111M or in combination. […]
Thoracic aortas were dissected from either male wistar rats (˜200 g) or 4-5 week old male C57BL6J mice (both obtained from Charles River, UK). […] Angiogenic sprouts from explants were counted after 7 days and expressed as sprouts/ring or explant.

HUVECs = assay: Scratch wound cell migration assay; type: cell-based, human; settings: synthetic peptides alone or in combination
Description: FIG. 2. Miniaturization strategy to identify minimum peptide sequence for inhibition of angiogenesis. Schematic diagram showing the series of deletion mutants generated to ascertain the anti-angiogenic peptide sequence contained in syndecan-3 (A). Purified GST fusion proteins were used at a concentration of 0.5 μM in scratch wound migration assays using confluent monolayers of HUEVCs. Wound closure was measured after 7 hours. In this way we identified that the antiangiogenic properties of Syndecan-3 reside between P195 and A221 of the protein.
FIG. 3. […] Comparison of the antiangiogenic sequences in the murine and human forms of syndecan-3 (A). Amino acids which are different are highlighted in yellow. Scratch wound cell migration assays comparing the anti-migratory effects of QM107, QM111 and QM111M on HUVECS (B). […]
Confluent monolayers of HUVECs were scratched with a pipette tip, cells were then washed twice with PBS prior to the addition of growth medium supplemented with either GST fusion proteins or peptide treatments. Wounds were monitored by time lapse microscopy using an Olympus IX81 Microscope Hamamatsu Orca ER digital camera. Regions of interests in the scratch area were recorded using Cell^M software (Olympus) and micrographs of ROIs taken every 30 min for 16 hours with an Olympus IX81 inverted microscope. The initial and final gap was measured using ImageJ software (NIH).

[1] = system: pathological retinal neovascularisation (preretinal tufts); assay: Oxygen-induced retinopathy (OIR) mouse model; type: in vivo; settings: mouse pups, 0.5 μM QM111 injected into eye on return to normoxia vs PBS eye, analysed at P17
Description: FIG. 5. […] Data from an oxygen-induced model of retinopathy study. In this study. OIR was generated by exposing mice pups to 75% oxygen for 5 days from P7-P12. On P13, mice are injected with PBS (left eye) and 0.5 μM QM111 (right eye). They were then placed into 20% oxygen from P13-P17 where they underwent hypoxia. which led to neovascularisation taking place. OIR samples were collected at P17 and retinal structures were stained with isolectin GS-IB4. Neovascularisation was quantified by measuring the total areas where preretinal tufts were present. […] Data is from 8 mice.
Neonatal mice (both male and female) at P7 were exposed to 75% oxygen for 5 days with their nursing mothers. At P12, they were returned to normoxia. Animals were euthanized at P12 to determine the area of vaso-obliteration or at P17 to determine the rate of retinal revascularization and pre-retinal neovascularization. […] Sub retinal injections of the treatments described and controls was administered at day P12 upon return to normoxic conditions. Analysis of retinal vasculature was done as previously described. […] Pre-retinal neovascular tufts were readily distinguished from the superficial vascular plexus by focusing just above the inner limiting membrane. Areas of vascular obliteration and pathological neovascularization (neovascular tufts) were quantified using Adobe Photoshop CS3. […]

| Substance | angiogenic sprouting from murine choroid explants (murine choroid explants) | angiogenic sprout formation from rat aortic rings (rat aortic rings) | endothelial cell (HUVEC) migration in scratch wound assay (HUVECs) | pathological neovascularisation (area of preretinal tufts) in oxygen-induced retinopathy [1] |
| --- | --- | --- | --- | --- |
| LPLPLTTVA (listed as Homo sapiens) [QM111T] | inhibited angiogenesis to the same degree as QM111 and QM107 |  |  |  |
| PPFTATT AVIRTTGVRR LLPLPLTTVA (PPFTATTAVIRTTGVRRLLPLPLTTVA; listed as Homo sapiens) [QM111, human syndecan-3 peptide corresponding to the anti-angiogenic region] |  | inhibited to a similar degree | inhibited endothelial cell migration to the same degree | reduced pathological angiogenesis; also recorded: blocks pathological neovascularization |
| QM111M: mouse peptide, 27 amino acids of the anti-angiogenic region (P195-A221) of murine syndecan-3 (PPATATVADVRTTGIQGMLPLPLTTAA; UniProt Q64519 195-221, looked up, fragment) |  | inhibited to a similar degree | inhibited endothelial cell migration to the same degree |  |
